Source: US9572788B2, “Cell permeable inhibitors of anaphase promoting complex” (President and Fellows of Harvard College, priority 2014, dated 2017)

Columns and labels:
[1] = test system: HeLa cells; assay: Endogenous APC substrate levels by immunoblot in synchronized HeLa cells; format: cell-based, human; settings: 12 μM
Method: FIG. 1E is a series of photographs of gel electrophoresis analysis showing that proTAME stabilizes endogenous APC substrates. HeLa cells were synchronized by double thymidine procedure and released into compounds (12 μM). Protein levels were measured by immunoblot.

[2] = test system: U2OS-H2B-GFP cells; assay: Fluorescence live cell imaging with survival (Cox) analysis, U2OS; format: cell-based, human; settings: proTAME 12 μM
Method: Mitotic duration and cell fate were determined by manual inspection of the movies and plotted as Kaplan-Meier curves. The hatch marks on the Kaplan-Meier curved indicate mitotic duration endpoints of censored cells. Includes the combined results of five independent experiments. […] Pairwise comparison between proTAME and proTAME+apcin-M tested using a Cox proportional hazards model stratified by date, using data from only the experimental blocks in which both proTAME and proTAME+apcin were tested.
Movies were manually analyzed using Nikon Elements software or Image J.
Plates were inserted into a covered chamber supplied with humidified 5% CO2 and mounted onto a motorized microscope stage (Prior Scientific). […] A Hamamatsu ORCA cooled CCD camera collected the images with 2×2 binning using Nikon Elements software (version 3.0). Movies were manually analyzed using Nikon Elements software or ImageJ. Mitotic duration was defined as the time from nuclear envelope breakdown until anaphase, in the case of normal mitosis, or until exit from prolonged mitosis as indicated by cytoplasmic blebbing accompanied by changes in chromatin as detected by H2B-GFP.
The Cox proportional hazards model is a semiparameteric approach to modeling time-to-event data, in which covariates are assumed to have constant proportional effects over time relative to a baseline hazard function that can take any form. In this case, stratification on “person” (the individual who analyzed the movie) and “date” (the date the assay was run) allow the baseline hazard function to differ across experimental blocks, but assume a fixed effect of treatment across experimental blocks. The model is thus: hi(t|Z=j)=hj(t)exp(β1×apcini+β2×apcinMi+β3×proTAMEi+β4×proTAMEi:apcinMi+β5×proTAMEi:apcini), j=1 . . . […] This model was fit separately to cells treated with control siRNA or Mad2 siRNA. All statistical analysis was carried out in R 3.0.0 using the functions available as part of the survival package.

[3] = target: T1, APC (Homo sapiens, UniProt P30260); assay: Cdc20/Cdh1 binding assay in HeLa cells (APC immunoprecipitation); format: cell-based
T1 construct: endogenous in cells; host or cells: HeLa cells (synchronised; some with Mad2/BubR1 siRNA and cyclin B1-delta107 adenovirus)
T1 sequence (P30260 whole entry): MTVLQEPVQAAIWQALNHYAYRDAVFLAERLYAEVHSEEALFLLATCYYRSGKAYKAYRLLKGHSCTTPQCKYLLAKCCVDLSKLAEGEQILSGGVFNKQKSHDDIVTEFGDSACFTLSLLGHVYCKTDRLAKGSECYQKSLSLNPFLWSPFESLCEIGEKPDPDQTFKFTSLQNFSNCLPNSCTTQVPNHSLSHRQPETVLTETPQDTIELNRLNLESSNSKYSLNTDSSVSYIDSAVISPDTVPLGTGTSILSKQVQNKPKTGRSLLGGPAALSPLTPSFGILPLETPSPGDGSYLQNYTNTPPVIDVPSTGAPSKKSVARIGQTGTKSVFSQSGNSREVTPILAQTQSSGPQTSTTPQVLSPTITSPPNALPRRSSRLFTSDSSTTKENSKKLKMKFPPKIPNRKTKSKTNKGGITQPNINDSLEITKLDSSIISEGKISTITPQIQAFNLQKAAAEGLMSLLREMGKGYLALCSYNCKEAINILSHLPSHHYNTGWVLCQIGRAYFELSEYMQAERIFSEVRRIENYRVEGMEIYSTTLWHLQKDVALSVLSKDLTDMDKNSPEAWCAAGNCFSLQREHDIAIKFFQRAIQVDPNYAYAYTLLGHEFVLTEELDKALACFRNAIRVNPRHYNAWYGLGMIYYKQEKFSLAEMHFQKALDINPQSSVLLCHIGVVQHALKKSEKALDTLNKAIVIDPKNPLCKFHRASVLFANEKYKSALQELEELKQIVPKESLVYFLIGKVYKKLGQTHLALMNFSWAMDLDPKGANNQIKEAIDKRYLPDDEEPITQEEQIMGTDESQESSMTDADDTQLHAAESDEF
Method: HeLa cells in DMEM 10% FBS were plated in T25 flasks at 20% confluence one day prior to the experiment. They were then synchronized by a double thymidine block (18 h for the first block, 8 h release and another 18 h for the second block, thymidine concentration: 2 mM). For analysis of Cdh1 binding, cells were released into […] from the second thymidine block for 13 h and then washed into fresh medium. Six h later, cells were treated with 12 μM proTAME or proAAME or 0.06% DMSO for 2 h and then collected by trypin digestion. For analysis of Cdc20 binding, cells were transfected with indicated siRNAs during the first release from thymidine block after two washes with DPBS (CellGro 21-030-CV) and addition of 6.3 ml OptiMEM. A volume (79 μl) of 20 μl Control siRNA#3 or a 1:1 mix of 20 μl MAD2 siRNA and BubR1 siRNA (Dharmacon D-004101-01, 5′-[…]-3′ (SEQ ID NO: 11)) was mixed in 1381 μl OptiMEM in a tube, 23.7 μl OligoFectamine were mixed with 94.1 μl OptiMEM in a second tube. After 5 min incubation at RT, the tubes contents were mixed and siRNA-reagent complexes were allowed to form for 20 min at RT. The transfection mixes were added to cells in OptiMEM and FBS was added to 10% after 5 h transfection. Cyclin B1-Δ107 expressing adenovirus (1:100) was added at the start of the second thymidine block and kept in the medium for all subsequent steps. Cells were treated at 10 h after release with 100 nM okadaic acid, 25 μg/ml cycloheximide and 12 μM proTAME as indicated. After 2 h treatment, cells were collected by mitotic shake-off. Cell pellets were washed twice with DPBS and flash-frozen with liquid nitrogen and stored at −80° C. until use. Cell lysis and APC immunoprecipitation were performed as described above.

[4] = test system: HeLa H2B-GFP cells; assay: Emi1 knockdown and proTAME rescue; format: cell-based, human; settings: 12 μM
Method: HeLa H2B-GFP cells were plated in glass-bottom 24-well plates at 20% confluence one day prior to the experiment. Cells were transfected with a pool of Emi1 siRNA (Dharmacon M-012434-01, 5′-[…]-3′ (SEQ ID NO: 4); 5′-[…]-3′ (SEQ ID NO: 5); 5′-[…]-3′ (SEQ ID NO: 6); 5′-[…]-3′ (SEQ ID NO: 7)) or Control#3 siRNA (described above) at 18.5 nM with DharmaFect3. After 24 h, cells were treated with 0.06% DMSO or 12 μM proTAME. Live cell imaging was set up as described above.

COC(=O)[C@H](CCCN/C(=N\C(=O)OCOC(=O)Cc1ccccc1)NC(=O)OCOC(=O)Cc1ccccc1)NS(=O)(=O)c1ccc(C)cc1 [proTAME]
Stabilization of endogenous cyclin B and securin [1]: dramatically stabilized
Median mitotic duration ([2]; Table 7, apcin or apcin-M 25 μM): 180
% rate of mitotic exit ([2]; relative to DMSO control, Cox model, apcin/apcin-M 25 μM): 3.63%
Dissociation of Cdc20 from the APC ([3]; HeLa arrested by nondegradable cyclin B, 12 μM): induced significant dissociation of Cdc20 from the APC, but only if SAC proteins were depleted by RNAi
Cdh1 association with the APC ([3]; HeLa cells in G1, 12 μM): inhibited Cdh1 association with the APC
Reduction in Cdc20 binding to the APC ([3]; HeLa, 12 μM plus 10 μM MG132 for 2 hours): 30%
Rescue of mitotic entry defect in Emi1-depleted cells [4]: substantially rescued the mitotic entry defect caused by depletion of Emi1
